According to patent publication US7671085B2, “Non-steroidal farnesoid X receptor modulators and methods for the use thereof” (The Salk Institute for Biological Studies, priority 2002, dated 2010):
Entries after “also recorded” stand apart in the source; their conditions may differ.

Biological target: T1, FXR (Homo sapiens, UniProt Q96RI1)
T1 construct: using a full length FXR on a natural response element; expressed in transfected cells
T1 sequence (Q96RI1 1-486): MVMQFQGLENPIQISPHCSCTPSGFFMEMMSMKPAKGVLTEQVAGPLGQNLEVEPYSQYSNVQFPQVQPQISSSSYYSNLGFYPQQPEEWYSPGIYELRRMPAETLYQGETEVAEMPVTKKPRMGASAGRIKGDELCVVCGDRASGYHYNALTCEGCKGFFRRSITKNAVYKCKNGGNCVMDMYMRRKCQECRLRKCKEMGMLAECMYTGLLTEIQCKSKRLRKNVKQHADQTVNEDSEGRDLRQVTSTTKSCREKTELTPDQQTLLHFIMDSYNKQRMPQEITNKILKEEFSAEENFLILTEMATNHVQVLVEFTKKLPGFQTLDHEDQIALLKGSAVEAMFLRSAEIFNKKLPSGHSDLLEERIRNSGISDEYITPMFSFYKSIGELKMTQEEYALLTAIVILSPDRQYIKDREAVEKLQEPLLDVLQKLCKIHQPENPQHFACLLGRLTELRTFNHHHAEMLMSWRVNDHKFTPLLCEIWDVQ
Test: cell-based FXR transcription assay, FXR responsive promoter linked to luciferase reporter
Conditions: for RE^a / EC50: cell-based FXR reporter assay; for RE^a: footnote a not given; for FXR activation, in words: cell-based reporter assay, SAR discussion; for EC50: determined with Prism 3.0
From the text: In addition to ensuring that only cell permeable compounds were selected for further optimization, this approach allows for the detection of FXR activation in a natural system (i.e., correct folding of the protein and in the presence of a complete compliment of co-activators and co-repressors).
The feasibility of creating high throughput screens (HTS) for ORs was explored using FXR as a candidate orphan receptor (OR) with a known activator, chenodeoxycholic acid (CDCA) as a ligand. The screen is based on the co-transfection of a full-length receptor with the reporter vector containing a natural hormone response element under a minimal eukaryotic promoter. […] Using this 384-well format, the high throughput screening (HTS) approach to FXR as a candidate OR was employed. […] A central question in the feasibility studies is whether this library is suitable for screening for nuclear receptor ligands. Samples of this library were first reformatted into a 384-well format and then subjected to the FXR cell-based assays described above and assessed for FXR-mediated transcriptional activity. Cells were exposed to approximately 10 μM of sample for 18 hrs prior to washing and luciferase analysis.
EC50 values were determined with Prism 3.0 software via the activity of the subject compound in the previously described cell based assay.

Structure (SMILES) | RE^a | FXR activation, in words | EC50 [µM]
COC(=O)C=Cc1cccc(N(Cc2ccc(C=CC(=O)OC(C)(C)C)cc2)C(=O)NCc2ccccc2)c1 [Compound 146] | 0.27 | only marginal efficacy | –
COC(=O)C=Cc1cccc(N(C)C(=O)C2CCCCC2)c1 [Compound 147] | 0.09 | – | –
COC(=O)C=Cc1cccc(N(Cc2ccc(C(C)(C)C)cc2)C(=O)C2CCCCC2)c1 [Compound 148] | 0.15 | – | –
COC(=O)C=Cc1ccc(CN(C(=O)C2CCCCC2)c2cccc(C=CC(=O)OC)c2)cc1 [Compound 150] | 0.87 | – | –
CCOC(=O)C=Cc1ccc(CN(C(=O)C2CCCCC2)c2cccc(C=CC(=O)OC)c2)cc1 [Compound 151] | 1.14 | – | –
COC(=O)C=Cc1cccc(N(Cc2ccc(C=CC(=O)OC(C)C)cc2)C(=O)C2CCCCC2)c1 [Compound 152] | 1.97 | – | –
COC(=O)C=Cc1cccc(N(Cc2ccc(C=CC(=O)OCc3ccccc3)cc2)C(=O)C2CCCCC2)c1 [Compound 153] | 0.23 | – | –
COC(=O)C=Cc1cccc(N(Cc2ccc(C=CC(=O)N(C)C)cc2)C(=O)C2CCCCC2)c1 [Compound 154] | 0.66 | – | –
COC(=O)C=Cc1cccc(N(Cc2ccc(C=CC(=O)NC(C)(C)C)cc2)C(=O)C2CCCCC2)c1 [Compound 155] | 1.65 | – | > 1
COCC=Cc1ccc(CN(C(=O)C2CCCCC2)c2cccc(C=CC(=O)OC)c2)cc1 [Compound 156] | 1.63 | – | –
CCOCC=Cc1ccc(CN(C(=O)C2CCCCC2)c2cccc(C=CC(=O)OC)c2)cc1 [Compound 157] | 2.06 | – | –
COC(=O)C=Cc1cccc(N(Cc2ccc(C=CCOc3ccccc3)cc2)C(=O)C2CCCCC2)c1 [Compound 158] | 0.64 | only micromolar activity | –
COC(=O)C=Cc1cccc(N(Cc2ccc(CCC(=O)OC(C)(C)C)cc2)C(=O)C2CCCCC2)c1 [Compound 159] | 1.56 | – | –
CC(C)(C)OC(=O)/C=C/c1cccc(N(Cc2ccc(CCC(=O)OC(C)(C)C)cc2)C(=O)C2CCCCC2)c1 [Compound 160] | 0.64 | – | –
COC(=O)C=Cc1cccc(N(Cc2ccc(C=CC(=O)OC(C)(C)C)cc2O)C(=O)C2CCCCC2)c1 [Compound 161] | 0.12 | – | –
COC(=O)C=Cc1cccc(N(Cc2ccc(C=CC(=O)OC(C)(C)C)cc2OC)C(=O)C2CCCCC2)c1 [Compound 162] | 0.14 | – | –
COC(=O)C=Cc1cccc(N(Cc2ccc(C=CC(=O)OC(C)(C)C)cc2OCc2ccccc2)C(=O)C2CCCCC2)c1 [Compound 163] | 0.38 | – | –
COC(=O)C=Cc1cccc(N(Cc2ccc(C=CC(=O)OC(C)(C)C)cc2OC(C)=O)C(=O)C2CCCCC2)c1 [Compound 164] | 0.16 | – | –
COC(=O)C=Cc1cccc(N(Cc2ccc(C=CC(=O)OC(C)(C)C)cc2OC(=O)c2ccccc2)C(=O)C2CCCCC2)c1 [Compound 165] | 0.16 | – | –
COC(=O)C=Cc1cccc(N(Cc2ccc(C=CC(=O)OC(C)(C)C)cc2OS(C)(=O)=O)C(=O)C2CCCCC2)c1 [Compound 166] | 0.18 | – | –
CCOC(=O)COc1cc(C=CC(=O)OC(C)(C)C)ccc1CN(C(=O)C1CCCCC1)c1cccc(C=CC(=O)OC)c1 [Compound 167] | 0.18 | – | –
COC(=O)/C=C/c1cccc(N(Cc2ccc(/C=C/c3ccc(C)cc3)cc2)C(=O)C2CCCCC2)c1 [Compound 174] | 0.83 | among the least active | –
COC(=O)/C=C/c1cccc(N(Cc2ccc(/C=C/c3ccc(C)cc3)cc2)C(=O)C(C)C)c1 [Compound 175] | 0.37 | – | 1.41
COC(=O)/C=C/c1cccc(N(Cc2ccc(/C=C/c3ccc(C)cc3)cc2)C(=O)NC(C)C)c1 [Compound 176] | 0.10 | – | 3.57
COC(=O)/C=C/c1cccc(N(Cc2ccc(/C=C/c3c(Cl)cccc3Cl)cc2)C(=O)C2CCCCC2)c1 [Compound 177] | 0.12 | excellent activity | –
COC(=O)/C=C/c1cccc(N(Cc2ccc(/C=C/c3c(Cl)cccc3Cl)cc2)C(=O)C(C)C)c1 [Compound 178] | 0.14 | – | –

Structure (SMILES) | RE^a | FXR activation, in words | EC50 [µM]
COC(=O)/C=C/c1cccc(N(Cc2ccc(/C=C/c3c(Cl)cccc3Cl)cc2)C(=O)NC(C)C)c1 [Compound 179] | 0.15 | – | 0.216
COC(=O)C=Cc1cccc(N(Cc2ccc(C=Cc3cccc(Cl)c3)cc2)C(=O)C2CCCCC2)c1 [Compound 180] | 1.41 | excellent activity | –
COC(=O)/C=C/c1cccc(N(Cc2ccc(/C=C/c3cccc(Cl)c3)cc2)C(=O)C(C)C)c1 [Compound 181] | 1.09 | excellent activity | 0.164
COC(=O)/C=C/c1cccc(N(Cc2ccc(/C=C/c3cccc(Cl)c3)cc2)C(=O)NC(C)C)c1 [Compound 182] | 0.59 | – | –
COC(=O)C=Cc1cccc(N(Cc2ccc(C=Cc3cc(C(F)(F)F)cc(C(F)(F)F)c3)cc2)C(=O)C2CCCCC2)c1 [Compound 183] | 0.15 | – | 1.47
COC(=O)/C=C/c1cccc(N(Cc2ccc(/C=C/c3cc(C(F)(F)F)cc(C(F)(F)F)c3)cc2)C(=O)C(C)C)c1 [Compound 184] | 0.13 | – | –
COC(=O)/C=C/c1cccc(N(Cc2ccc(/C=C/c3cc(C(F)(F)F)cc(C(F)(F)F)c3)cc2)C(=O)NC(C)C)c1 [Compound 185] | 0.13 | – | –
COC(=O)C=Cc1cccc(N(Cc2ccc(C=Cc3cccc(C(F)(F)F)c3)cc2)C(=O)C2CCCCC2)c1 [Compound 186] | 0.35 | – | 0.937
COC(=O)/C=C/c1cccc(N(Cc2ccc(/C=C/c3cccc(C(F)(F)F)c3)cc2)C(=O)C(C)C)c1 [Compound 187] | 0.70 | – | –
COC(=O)/C=C/c1cccc(N(Cc2ccc(/C=C/c3cccc(C(F)(F)F)c3)cc2)C(=O)NC(C)C)c1 [Compound 188] | 0.31 | – | –
COC(=O)C=Cc1cccc(N(Cc2ccc(C=Cc3c(F)cccc3F)cc2)C(=O)C2CCCCC2)c1 [Compound 189] | 0.94 | excellent activity | –
COC(=O)/C=C/c1cccc(N(Cc2ccc(/C=C/c3c(F)cccc3F)cc2)C(=O)C(C)C)c1 [Compound 190] | 0.79 | excellent activity | 0.108
COC(=O)/C=C/c1cccc(N(Cc2ccc(/C=C/c3c(F)cccc3F)cc2)C(=O)NC(C)C)c1 [Compound 191] | 0.21 | – | –
COC(=O)C=Cc1cccc(N(Cc2ccc(C=Cc3ccccc3F)cc2)C(=O)C2CCCCC2)c1 [Compound 192] | 1.41 | excellent activity; also recorded: among the most active | –
COC(=O)/C=C/c1cccc(N(Cc2ccc(/C=C/c3ccccc3F)cc2)C(=O)C(C)C)c1 [Compound 193] | 1.17 | excellent activity | –
COC(=O)/C=C/c1cccc(N(Cc2ccc(/C=C/c3ccccc3F)cc2)C(=O)NC(C)C)c1 [Compound 194] | 0.69 | – | –
COC(=O)C=Cc1cccc(N(Cc2ccc(C=Cc3c(C)cc(C)cc3C)cc2)C(=O)C2CCCCC2)c1 [Compound 195] | 0.24 | among the least active | –
COC(=O)/C=C/c1cccc(N(Cc2ccc(/C=C/c3c(C)cc(C)cc3C)cc2)C(=O)C(C)C)c1 [Compound 196] | 0.30 | – | –
COC(=O)/C=C/c1cccc(N(Cc2ccc(/C=C/c3c(C)cc(C)cc3C)cc2)C(=O)NC(C)C)c1 [Compound 197] | 0.14 | – | –
COC(=O)/C=C/c1cccc(N(Cc2ccc(/C=C/c3ccccc3)cc2)C(=O)C(C)C)c1 [Compound 198] | 1.33 | excellent activity | –
COC(=O)/C=C/c1cccc(N(Cc2ccc(/C=C/c3ccccc3)cc2)C(=O)NC(C)C)c1 [Compound 200] | 1.38 | – | –
COC(=O)C=Cc1cccc(N(Cc2ccc(C=Cc3cccc(F)c3)cc2)C(=O)C2CCCCC2)c1 [Compound 201] | 1.36 | excellent activity; also recorded: among the most active | –
COC(=O)/C=C/c1cccc(N(Cc2ccc(/C=C/c3cccc(F)c3)cc2)C(=O)C(C)C)c1 [Compound 202] | 1.33 | excellent activity | –
COC(=O)/C=C/c1cccc(N(Cc2ccc(/C=C/c3cccc(F)c3)cc2)C(=O)NC(C)C)c1 [Compound 203] | 0.61 | – | –
COC(=O)C=Cc1cccc(N(Cc2ccc(C=Cc3ccc(F)cc3)cc2)C(=O)C2CCCCC2)c1 [Compound 204] | 0.53 | excellent activity; also recorded: among the most active | –
